PubChem BioAssay (NCI)
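The compound was tested at five concentrations on cells cultured in 96-well plates, with a 48-hour exposure period. Abbreviation: GI50, concentration required for 50% inhibition of growth. TGI marks complete inhibition of growth.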

Columns and labels:
Experiment in all cases: growth of human tumour cells (NCI), 48 h
[1] = system: RPMI-8226 leukemia
[2] = system: U251 CNS
[3] = system: HCT-15 colon
[4] = system: OVCAR-3 ovarian
[5] = system: SNB-19 CNS
[6] = system: SN12C renal
[7] = system: IGROV1 ovarian
[8] = system: A549 NSCLC
[9] = system: NCI-H522 lung
[10] = system: 786-0 renal

SMILES: N#Cc1c(N)nc(NCc2ccccc2)c(C#N)c1-c1ccc(Cl)cc1Cl
- GI50 [1]: 33.5 µM
- TGI [1]: > 100 µM
- GI50 [2]: > 61.9 µM
- TGI [2]: > 100 µM
- GI50 [3]: > 100 µM
- TGI [3]: > 100 µM
- GI50 [4]: > 64.2 µM
- TGI [4]: > 100 µM
- GI50 [5]: > 100 µM
- TGI [5]: > 100 µM
- GI50 [6]: > 100 µM
- TGI [6]: > 100 µM
- GI50 [7]: 40.5 µM
- TGI [7]: > 100 µM
- GI50 [8]: > 100 µM
- TGI [8]: > 100 µM
- GI50 [9]: > 68.7 µM
- TGI [9]: > 100 µM
- GI50 [10]: > 100 µM
- TGI [10]: > 100 µM

SMILES: O=S(=O)(Nc1ccc(F)c(Cl)c1)c1ccc(-c2cnc(C3CC3)o2)cc1
- GI50 [1]: 0.388 µM
- TGI [1]: > 31.9 µM
- GI50 [2]: 0.438 µM
- TGI [2]: 13.7 µM
- GI50 [3]: 0.113 µM
- TGI [3]: 11.2 µM
- GI50 [4]: 0.154 µM
- TGI [4]: 4.01 µM
- GI50 [5]: 0.389 µM
- TGI [5]: 13.7 µM
- GI50 [6]: 0.663 µM
- TGI [6]: 10.8 µM
- GI50 [7]: 0.418 µM
- TGI [7]: 12.3 µM
- GI50 [8]: 0.773 µM
- TGI [8]: 13.1 µM
- GI50 [9]: 0.164 µM
- TGI [9]: 3.75 µM
- GI50 [10]: 0.495 µM
- TGI [10]: 13.1 µM

SMILES: Cc1cnc(Nc2ccc(N3CCN(C)CC3)cc2)nc1Nc1ccc(Cl)c(NS(=O)(=O)C(C)(C)C)c1
- GI50 [1]: 0.136 µM
- TGI [1]: 1.31 µM
- GI50 [2]: 0.84 µM
- TGI [2]: 11.7 µM
- GI50 [3]: 0.168 µM
- TGI [3]: 3.18 µM
- GI50 [4]: 0.324 µM
- TGI [4]: 2.93 µM
- GI50 [5]: 1.34 µM
- TGI [5]: 18.5 µM
- GI50 [6]: 0.542 µM
- TGI [6]: 12 µM
- GI50 [7]: 0.154 µM
- TGI [7]: 2.66 µM
- GI50 [8]: 0.339 µM
- TGI [8]: 1.81 µM
- GI50 [9]: 0.073 µM
- TGI [9]: 1.6 µM
- GI50 [10]: 0.208 µM
- TGI [10]: 1.82 µM

SMILES: CC1=C[C@H]2C[C@H](C)[C@H]3CC[C@H](C)[C@]4(C1)C(=O)C(O)=C(C)C(=O)[C@@]324
- GI50 [1]: 13.1 µM
- TGI [1]: 32.4 µM
- GI50 [2]: 32.1 µM
- TGI [2]: > 100 µM
- GI50 [3]: 32.7 µM
- TGI [3]: > 100 µM
- GI50 [4]: 20 µM
- TGI [4]: 64.6 µM
- GI50 [5]: 30.2 µM
- TGI [5]: > 100 µM
- GI50 [6]: 28.7 µM
- TGI [6]: > 100 µM
- GI50 [7]: 29.6 µM
- TGI [7]: > 100 µM
- GI50 [8]: 28.5 µM
- TGI [8]: > 100 µM
- GI50 [9]: 19.8 µM
- TGI [9]: 83.4 µM
- GI50 [10]: 30.1 µM
- TGI [10]: > 100 µM

SMILES: O=C(Nc1cc(Oc2cc(F)c(NC(=O)C3(C(=O)Nc4ccc(F)cc4)CC3)cc2F)ccn1)C1CC1
- GI50 [1]: 2.95 µM
- TGI [1]: 6.51 µM
- GI50 [2]: 3.96 µM
- TGI [2]: > 46.3 µM
- GI50 [3]: 3 µM
- TGI [3]: > 54.2 µM
- GI50 [4]: 3.69 µM
- TGI [4]: 13.1 µM
- GI50 [5]: 3.75 µM
- TGI [5]: > 100 µM
- GI50 [6]: 2.68 µM
- TGI [6]: > 100 µM
- GI50 [7]: 2.85 µM
- TGI [7]: 7.61 µM
- GI50 [8]: 3.21 µM
- TGI [8]: > 36.6 µM
- GI50 [9]: 2.18 µM
- TGI [9]: 5.84 µM
- GI50 [10]: 3.98 µM
- TGI [10]: > 50.1 µM

SMILES: CNS(=O)(=O)OCC1OC(n2cnc3c(N)ncnc32)C(O)C1O (stereo not given)
- GI50 [1]: > 100 µM
- TGI [1]: > 100 µM
- GI50 [2]: > 100 µM
- TGI [2]: > 100 µM
- GI50 [3]: > 100 µM
- TGI [3]: > 100 µM
- GI50 [4]: > 100 µM
- TGI [4]: > 100 µM
- GI50 [5]: > 100 µM
- TGI [5]: > 100 µM
- GI50 [6]: > 100 µM
- TGI [6]: > 100 µM
- GI50 [7]: > 100 µM
- TGI [7]: > 100 µM
- GI50 [8]: > 100 µM
- TGI [8]: > 100 µM
- GI50 [9]: > 100 µM
- TGI [9]: > 100 µM
- GI50 [10]: > 100 µM
- TGI [10]: > 100 µM

SMILES: COc1cc(-n2ccnc2)cc(OC)c1OC
- GI50 [1]: 75.6 µM
- TGI [1]: > 100 µM
- GI50 [2]: 58.6 µM
- TGI [2]: > 100 µM
- GI50 [3]: 40 µM
- TGI [3]: > 100 µM
- GI50 [4]: 51.6 µM
- TGI [4]: > 100 µM
- GI50 [5]: > 100 µM
- TGI [5]: > 100 µM
- GI50 [6]: 86 µM
- TGI [6]: > 100 µM
- GI50 [7]: 11.1 µM
- TGI [7]: 51.6 µM
- GI50 [8]: 95.1 µM
- TGI [8]: > 100 µM
- GI50 [9]: 60.6 µM
- TGI [9]: > 100 µM
- GI50 [10]: 39.1 µM
- TGI [10]: > 100 µM

SMILES: COc1cccc(/C(C)=N/NC(=O)CSc2nc3ccccc3c(=O)n2CCc2ccc(S(N)(=O)=O)cc2)c1
- GI50 [1]: 0.943 µM
- TGI [1]: > 100 µM
- GI50 [2]: 1.98 µM
- TGI [2]: 3.67 µM
- GI50 [3]: 18.4 µM
- TGI [3]: > 100 µM
- GI50 [4]: 2.32 µM
- TGI [4]: 4.8 µM
- GI50 [5]: 2.89 µM
- TGI [5]: 7.87 µM
- GI50 [6]: 4.52 µM
- TGI [6]: 19.5 µM
- GI50 [7]: 5.09 µM
- TGI [7]: 24.4 µM
- GI50 [8]: 2.01 µM
- TGI [8]: 3.93 µM
- GI50 [9]: 2.66 µM
- TGI [9]: 9.65 µM
- GI50 [10]: 1.47 µM
- TGI [10]: 3.95 µM

SMILES: COC(=O)/C=c1\s/c(=C\C(=O)OC)c2ccccc12
- TGI [1]: > 100 µM
- TGI [2]: > 100 µM
- TGI [3]: > 100 µM
- TGI [4]: > 100 µM
- TGI [5]: > 100 µM
- TGI [6]: > 100 µM
- TGI [7]: > 100 µM
- TGI [8]: > 100 µM
- TGI [9]: > 100 µM
- TGI [10]: > 100 µM

SMILES: NC(=Nc1ccc(N)cc1)C(N)=Nc1ccc(N)cc1
- GI50 [1]: > 100 µM
- TGI [1]: > 100 µM
- GI50 [2]: > 100 µM
- TGI [2]: > 100 µM
- GI50 [3]: 42.6 µM
- TGI [3]: > 100 µM
- GI50 [4]: 33.3 µM
- TGI [4]: > 100 µM
- GI50 [5]: > 100 µM
- TGI [5]: > 100 µM
- GI50 [6]: > 100 µM
- TGI [6]: > 100 µM
- GI50 [7]: 79.1 µM
- TGI [7]: > 100 µM
- GI50 [8]: > 100 µM
- TGI [8]: > 100 µM
- GI50 [9]: > 100 µM
- TGI [9]: > 100 µM
- GI50 [10]: > 100 µM
- TGI [10]: > 100 µM

SMILES: O=c1oc2ccc(-c3ccc(F)cc3F)cc2c(=O)n1-c1ccc(Cl)c(C(F)(F)F)c1
- GI50 [1]: 2.1 µM
- TGI [1]: 5.9 µM
- GI50 [2]: 2.36 µM
- TGI [2]: 12.5 µM
- GI50 [3]: 2.04 µM
- TGI [3]: 8.19 µM
- GI50 [4]: 3.17 µM
- TGI [4]: > 100 µM
- GI50 [5]: 3.65 µM
- TGI [5]: > 100 µM
- GI50 [6]: 2.6 µM
- TGI [6]: 11.7 µM
- GI50 [7]: 3.14 µM
- TGI [7]: > 100 µM
- GI50 [8]: 3.33 µM
- TGI [8]: > 100 µM
- GI50 [9]: 2.09 µM
- TGI [9]: 8.97 µM
- GI50 [10]: 2.34 µM
- TGI [10]: 5.68 µM

SMILES: COc1ccc(Nc2nc3cc(N)cc(N)c3nc2-c2ccccc2)cc1OC
- GI50 [1]: 7.95 µM
- TGI [1]: 28.3 µM
- GI50 [2]: 26 µM
- TGI [2]: > 100 µM
- GI50 [3]: 29 µM
- TGI [3]: > 100 µM
- GI50 [4]: 29.9 µM
- TGI [4]: > 100 µM
- GI50 [5]: 35.4 µM
- TGI [5]: > 100 µM
- GI50 [6]: 16.7 µM
- TGI [6]: 44.1 µM
- GI50 [7]: 24.8 µM
- TGI [7]: > 100 µM
- GI50 [8]: 35.2 µM
- TGI [8]: > 100 µM
- GI50 [9]: 28.9 µM
- TGI [9]: > 100 µM
- GI50 [10]: 23.8 µM
- TGI [10]: 90.3 µM
